Molecules are shown by their SMILES.

The first test relates to HIV-1 subtype A strain 12RU 69831. Briefly: Inhibition of HIV-1 reproduction / protection of infected MT-4 cells (living cell concentration, p24 production). The note with it: Human immunodeficiency virus 1, MT4, MT-4 cells infected with HIV-1 at a constant virus dose of 300 CCID50; read-out: Activity against HIV-1 12RU 69831 strain (subtype A). The test is classed as cell-based. As to the method:
Evaluation of HIV reproduction inhibition/protection of human cells by anti-HIV products of the present invention was conducted by measuring change in living cells concentration in experimental wells with MT-4 cells infected with HIV-1, as well as by the production of viral protein p24 with adding different concentrations of compounds according to the present invention. Antiviral activity of products against HIV-1 subtype A strain 12RU 69831 was determined, when the cell culture was infected with a constant dose of virus, corresponding to 300 CCID50.
On to `Cc1cccc(C)c1Oc1nc(Nc2ccc(C#N)cc2)nc2c1CCN(Cc1ccccc1)C2` [BB0273459], for which the IC50 worked out at 74.3 µM.

Consider `Cc1cc(C#N)cc(C)c1Oc1nc(Nc2ccc(C#N)cc2)nc2c1CCN(C)C2` [BB0273774, 4-((2-((4-Cyanophenyl)amino)-7-methyl-5,6,7,8-tetrahydropyrido[3,4-d]pyrimidine-4-yl)oxy)-3,5-dimethylbenzonitrile], for which the IC50 came to 224 µM.

`Cc1cc(C=O)cc(C)c1Oc1nc(Nc2ccc(C#N)cc2)nc2c1CCN(C)C2` [BB0273775, 4-((4-(4-Formyl-2,6-dimethylphenoxy)-7-methyl-5,6,7,8-tetrahydro[3,4-d]pyrimidine-2-yl)amino)benzonitrile]: the IC50 was determined as 295 µM.

Consider `Cc1cc(C2OCCCO2)cc(C)c1Oc1nc(Nc2ccc(C#N)cc2)nc2c1CCN(C(=O)OC(C)(C)C)CC2` [BB0273892], for which the IC50 was 1220 µM.

As to `Cc1cc(C=O)cc(C)c1Oc1nc(Nc2ccc(C#N)cc2)nc2c1CCN(C(=O)OC(C)(C)C)CC2` [BB0273943, Tert-butyl 2-((4-cyanophenyl)amino)-4-(4-formyl-2,6-dimethylphenyoxy)-8,9-dihydro-5H-pyrimido[4,5-d]azepine-7(6H)-carboxylate], the IC50 came out at 346 µM.

Take `Cc1cc(C#N)cc(C)c1Oc1nc(Nc2ccc(C#N)cc2)nc2c1CN(C(=O)OC(C)(C)C)CC2` [BB0273961, Tert-butyl 4-(4-cyano-2,6-dimethylphenoxy)-2-((4-cyanophenyl)amino)-7,8-dihydropyrido[4,3-d]pyrimidine-6(5H)-carboxylate]: the IC50 amounted to 42.3 µM.

Turning to `Cc1cc(C#N)cc(C)c1Oc1nc(Nc2ccc(C#N)cc2)nc2c1CNCC2` [BB0273963, 4-((2-((4-Cyanophenyl)amino)-5,6,7,8-tetrahydropyrido[4,3-d]pyrimidine-4-yl)oxy)-3,5-dimethylbenzonitrile], the IC50 came out at 7.56 µM.

`Cc1cc(C#N)cc(C)c1Oc1nc(Nc2ccc(C#N)cc2)nc2c1CN(S(C)(=O)=O)CC2` [BB0273964, 4-((2-((4-Cyanophenyl)amino)-6-(methylsulfonyl)-5,6,7,8-tetrahydropyrido[4,3-d]pyrimidine-4-yl)oxy)-3,5-dimethylbenzonitrile]: the IC50 worked out at 0.145 µM.

As to `CCOC(=O)N1CCc2nc(Nc3ccc(C#N)cc3)nc(Oc3c(C)cc(C#N)cc3C)c2C1` [BB0273965, Ethyl 4-(4-cyano-2,6-dimethylphenoxy)-2-((4-cyanophenyl)amino)-7,8-dihydropyrido[4,3-d]pyrimidine-6(5H)-carboxylate], the IC50 worked out at 1.73 µM.

In the case of `Cc1cc(/C=C/C(=O)O)cc(C)c1Oc1nc(Nc2ccc(C#N)cc2)nc2c1CCN(C(=O)OC(C)(C)C)CC2` [BB0273969, (E)-3-(4-((7-(Tert-butoxycarbonyl)-2-((4-cyanophenyl)amino)-6,7,8,9-tetrahydro-5H-pyrimido[4,5-d]azepine-4-yl)oxy)-3,5-dimethylphenyl)acrylic acid], the IC50 is 10700 µM.

Turning to `Cc1cc(C#N)cc(C)c1Oc1nc(Nc2ccc(C#N)cc2)nc2c1CCN(C(=O)OC(C)(C)C)CC2` [BB0273972, Tert-butyl 4-(4-cyano-2,6-dimethylphenoxy)-2-((4-cyanophenyl)amino)-8,9-dihydro-5H-pyrimido[4,5-d]azepine-7(6H)-carboxylate], the IC50 was 117 µM.

Take `Cc1cc(/C=C/C#N)cc(C)c1Oc1nc(Nc2ccc(C#N)cc2)nc2c1CCN(C(=O)OC(C)(C)C)CC2` [BB0274009, Tert-butyl 2-((4-cyanophenyl)amino)-4-(4-(2-cyanovinyl)-2,6-dimethylphenoxy)-8,9-dihydro-5H-pyrimido[4,5-d]azepine-7(6H)-carboxylate]: the IC50 worked out at 291 µM.

Turning to `Cc1cc(C#N)cc(C)c1Oc1nc(Nc2ccc(C#N)cc2)nc2c1CCN(C(=O)c1ccccn1)CC2` [BB0274010, 4-((2-((4-Cyanophenyl)amino)-7-picolynoyl-6,7,8,9-tetrahydro-5H-pyrimido[4,5-d]azepine-4-yl)oxy)-3,5-dimethylbenzonitrile], the IC50 was found to be 0.062 µM.

In the case of `Cc1cc(C#N)cc(C)c1Oc1nc(Nc2ccc(C#N)cc2)nc2c1CCN(C(=O)c1ccncc1)CC2` [BB0274011, 4-((2-((4-Cyanophenyl)amino)-7-isonicotinoyl-6,7,8,9-tetrahydro-5H-pyrimido[4,5-d]azepine-4-yl)oxy)-3,5-dimethylbenzonitrile], the IC50 is 27.1 µM.

Consider `Cc1cc(C#N)cc(C)c1Oc1nc(Nc2ccc(C#N)cc2)nc2c1CCN(C(=O)c1cccnc1)CC2` [BB0274012, 4-((2-((4-Cyanophenyl)amino)-7-nicotinoyl-6,7,8,9-tetrahydro-5H-pyrimido[4,5-d]azepine-4-yl)oxy)-3,5-dimethylbenzonitrile], for which the IC50 stood at 5.81 µM.

For `Cc1cc(C#N)cc(C)c1Oc1nc(Nc2ccc(C#N)cc2)nc2c1CCN(Cc1ccccn1)CC2` [BB0274014, 4-((2-((4-Cyanophenyl)amino)-7-(pyridine-2-ylmethyl)-6,7,8,9-tetrahydro-5H-pyrimido[4,5-d]azepine-4-yl)oxy)-3,5-dimethylbenzonitrile], the IC50 worked out at 5.98 µM.

`Cc1cc(C#N)cc(C)c1Oc1nc(Nc2ccc(C#N)cc2)nc2c1CCN(Cc1cccnc1)CC2` [BB0274015, 4-((2-((4-Cyanophenyl)amino)-7-(pyridine-3-ylmethyl)-6,7,8,9-tetrahydro-5H-pyrimido[4,5-d]azepine-4-yl)oxy)-3,5-dimethylbenzonitrile]: the IC50 came out at 29.9 µM.

Turning to `Cc1cc(C#N)cc(C)c1Oc1nc(Nc2ccc(C#N)cc2)nc2c1CCN(Cc1ccncc1)CC2` [BB0274016, 4-((2-((4-Cyanophenyl)amino)-7-(pyridine-4-ylmethyl)-6,7,8,9-tetrahydro-5H-pyrimido[4,5-d]azepine-4-yl)oxy)-3,5-dimethylbenzonitrile], the IC50 was 4880 µM.

Take `Cc1cc(C#N)cc(C)c1Oc1nc(Nc2ccc(C#N)cc2)nc2c1CCNCC2` [BB0274021, 4-((2-((4-Cyanophenyl)amino)-6,7,8,9-tetrahydro-5H-pyrimido[4,5-d]azepine-4-yl)oxy)-3,5-dimethylbenzonitrile]: the IC50 was 0.0102 µM.

Take `Cc1cc(C#N)cc(C)c1Oc1nc(Nc2ccc(C#N)cc2)nc2c1CCN(C(=O)C1CCN(C(=O)OC(C)(C)C)CC1)CC2` [BB0274025, Tert-butyl 4-(4-(4-cyano-2,6-dimethylphenoxy)-2-((4-cyanophenyl)amino)-6,7,8,9-tetrahydro-5H-pyrimido[4,5-d]asein-7-carbonyl)piperidine-1-carboxylate]: the IC50 came to 3220 µM.

As for `Cc1cc(C#N)cc(C)c1Oc1nc(Nc2ccc(C#N)cc2)nc2c1CCN(C(=O)C1CCNCC1)CC2` [BB0274026, 4-((2-((4-Cyanophenyl)amino)-7-(piperidine-4-carbonyl)-6,7,8,9-tetrahydro-5H-pyrimido[4,5-d]azepine-4-yl)oxy)-3,5-dimethylbenzonitrile], the IC50 came to 0.364 µM.

In the case of `Cc1cc(C#N)cc(C)c1Oc1nc(Nc2ccc(C#N)cc2)nc2c1CCN(C1CCN(C(=O)OC(C)(C)C)CC1)CC2` [BB0274027, Tert-butyl 4-(4-(4-cyano-2,6-dimethylphenoxy)-2-((4-cyanophenyl)amino)-8,9-dihydro-5H-pyrimido[4,5-d]azepine-7(6H)-yl)piperidine-1-carboxylate], the IC50 was 37 µM.

On to `Cc1cc(C#N)cc(C)c1Oc1nc(Nc2ccc(C#N)cc2)nc2c1CCN(C1CCNCC1)CC2` [BB0274028, 4-((2-((4-Cyanophenyl)amino)-7-(piperidine-4-yl)-6,7,8,9-tetrahydro-5H-pyrimido[4,5-d]azepine-4-yl)oxy)-3,5-dimethylbenzonitrile], for which the IC50 was 16.2 µM.

As for `Cc1cc(C#N)cc(C)c1Oc1nc(Nc2ccc(C#N)cc2)nc2c1CN(C(=O)CN)CC2` [BB0274051, 4-((6-(2-Aminoacetyl)-2-((4-cyanophenyl)amino)-5,6,7,8-tetrahydropyrido[4,3-d]pyrimidine-4-yl)oxy)-3,5-dimethylbenzonitrile], the IC50 turned out to be 0.00552 µM.

Regarding `Cc1cc(C#N)cc(C)c1Oc1nc(Nc2ccc(C#N)cc2)nc2c1CN(C(=O)CN1CC(O)C1)CC2` [BB0274052, 4-((2-((4-Cyanophenyl)amino)-6-(2-(3-hydroxyazetidine-1-yl)acetyl)-5,6,7,8-tetrahydropyrido[4,3-d]pyrimidine-4-yl)oxy)-3,5-dimethylbenzonitrile], the IC50 came to 0.127 µM.

For `Cc1cc(C#N)cc(C)c1Oc1nc(Nc2ccc(C#N)cc2)nc2c1CCN(C(=O)C1CCCN1C(=O)OC(C)(C)C)CC2` (centres unmarked) [BB0274063, Tert-butyl 2-(4-(4-cyano-2,6-dimethylphenoxy)-2-((cyanophenyl)amino)-6,7,8,9-tetrahydro-5H-pyrimido[4,5-d]azepine-7-carbonyl)pyrrolidine-1-carboxylate], the IC50 was determined as 230 µM.

Consider `Cc1cc(C#N)cc(C)c1Oc1nc(Nc2ccc(C#N)cc2)nc2c1CCN(C(=O)[C@H]1CCCN1C(=O)OC(C)(C)C)CC2` [BB0274064, (R)-Tert-butyl 2-(4-(4-cyano-2,6-dimethylphenoxy)-2-((cyanophenyl)amino)-6,7,8,9-tetrahydro-5H-pyrimido[4,5-d]azepine-7-carbonyl)pyrrolidine-1-carboxylate], for which the IC50 worked out at 493 µM.

Take `Cc1cc(C#N)cc(C)c1Oc1nc(Nc2ccc(C#N)cc2)nc2c1CCN(C(=O)[C@@H]1CCCN1C(=O)OC(C)(C)C)CC2` [BB0274065, (S)-Tert-butyl 2-(4-(4-cyano-2,6-dimethylphenoxy)-2-((cyanophenyl)amino)-6,7,8,9-tetrahydro-5H-pyrimido[4,5-d]azepine-7-carbonyl)pyrrolidine-1-carboxylate]: the IC50 came out at 41.1 µM.

The test is the same for the next values; noted with them: MT-4 cells infected with HIV-1 at a constant virus dose of 300 CCID50; read-out: Activity against HIV-1 12RU 69831 strain (subtype A).
On to `Cc1cc(C#N)cc(C)c1Oc1nc(Nc2ccc(C#N)cc2)nc2c1CCNCC2` [BB0273976, 4-((2-((4-Cyanophenyl)amino)-6,7,8,9-tetrahydro-5H-pyrimido[4,5-d]azepine-4-yl)oxy)-3,5-dimethylbenzonitrile], for which the IC50 worked out at 0.00583 µM.

Source of the values: patent US12485121B2, “Antiviral agents for the treatment and prevention of HIV infection” (Pharmasyntez, Joint Stock Company, priority 2020, dated 2025).
